Data from US9193718B2, “Quinazoline derivative and application thereof” (FUJIAN INSTITUTE OF RESEARCH ON THE STRUCTURE OF MATTER, …, priority 2012, dated 2015).

Biological target: T1, Tyrosine kinase (EGFR) (Homo sapiens, UniProt P00533)
T1 construct: made in house
Assay: EGFR tyrosine kinase inhibition by Enzyme-Linked Immunosorbent assay
Format: biochemical
Settings: compound at a concentration of 100 μM; ATP 5 μM; substrate poly(Glu,Tyr)4:1
Excerpt: Tyrosine kinase (EGFR) was expressed using a baculovirus expression system, and purified by using a Ni-NTA affinity chromatography. After tested, it was consistent with experimental standard. Poly(Glu,Tyr)4:1 (Sigma), Monoclonal Anti-Phosphotyrosine antibody PY99 (Santa Cruz), horseradish peroxidase-labeled goat anti-mouse IgG (Calbiochem), ATP, DTT, OPD (Amresco), microplates (Corning). Other reagents were all commercially available with analytical grade purity, which were not treated before use if no special instructions present. Isopropanol was dried with molecular sieves before use.
Quinazoline compounds represented by formula (I) and their pharmaceutically acceptable salts according to the present invention are used as EGFR inhibitors. The activity of the particularized compounds for inhibiting EGFR was determined by Enzyme-Linked Immunosorbent assay.
Detailed experimental procedure is as follows:
(1) Kinase reaction substrate poly(Glu,Tyr)4:1 was diluted to 20 μg/mL with potassium-free PBS, and the microplates were coated. After the reaction was for 12-16 h at 37° C., the liquid in the wells was removed.
(2) The plates were washed with T-PBS for three times, 10 min each time.
(3) The microplates were dried in an oven at 37.
(4) The samples to be tested were added into the wells of the coated microplates (wherein the samples to be tested were formulated to a 1×10^−2M stock solution with DMSO, and diluted to the desired concentration with reaction buffer before use. The resulted solution was added into the wells and then allowed to achieve the corresponding final concentration in 100 μL reaction system.
(5) the addition of ATP and tested tyrosine kinases
ATP solution diluted with reaction buffer (the final concentration of ATP is 5 μM) and the tested tyrosine kinases solution diluted with reaction buffer were added. The total volume of the reaction is 100 μL. Meanwhile the negative control wells and the control wells without enzyme were set up.
(6) The reaction system was placed in a wet box, and shaked for 1 hour at 37° C. shielding from light. After the reaction was complete, the plates were washed with T-PBS for three times.
(7) Antibody PY99 was added into each well (100 μL/well); and the plates were shaked for 30 min at 37° C. After the reaction was complete, the plates were washed with T-PBS for three times.
(8) 100 μL horseradish peroxidase-labeled goat anti-mouse IgG was added into each well, and the plates were shaked for 30 min at 37° C. The plates were washed with T-PBS for three times.
(9) 100 μL OPD developing liquid was added in each well, and was reacted for 1-10 min at room temperature shielding from light.
(10) 2M H2SO4 was added into each well to terminate the reaction. A490 value was determined using wavelength-tunable microplate reader. The inhibition ratio can be calculated by the following formula: […]
According to the above-described activity test method, the activity of inhibiting EGFR enzyme of the compounds represented by formula (I) or salts thereof were calculated.

Molecule	EGFR inhibition rate (%)
Clc1ccc(-c2cc(COc3ncnc4ccccc34)on2)c(Cl)c1 [Compound Q-6]	22.7
COCCOc1cc2ncnc(OCc3cc(-c4ccccc4)no3)c2cc1OCCOC [Compound Q-29, (6,7-bis(2-methoxyethoxy))-4-((3-phenyl-isoxazol-5-yl)-methoxy-)-quinazoline]	27.7
COc1cc2ncnc(OCc3cc(-c4ccccc4Cl)no3)c2cc1OC [Compound Q-18]	1.2
COCCOc1cc2ncnc(OCc3cc(-c4ccc(Cl)cc4Cl)no3)c2cc1OCCOC [Compound Q-34, (6,7-bis(2-methoxyethoxy))-4-((3-(2,4-dichlorophenyl)-isoxazol-5-yl)-methoxy-)-quinazoline]	7.8
COCCOc1cc2ncnc(OCc3cc(-c4ccc(OC)cc4)no3)c2cc1OCCOC [Compound Q-31]	38.2
Clc1ccccc1-c1cc(COc2ncnc3ccccc23)on1 [Compound Q-4]	25.8
COc1cc2ncnc(OCc3cc(-c4ccc(Cl)cc4)no3)c2cc1OC [Compound Q-19]	14.5
COCCOc1cc2ncnc(OCc3cc(-c4ccc(Br)cc4)no3)c2cc1OCCOC [Compound Q-35]	6.4

The next lines start with the values.

EGFR inhibition rate (%)	Molecule
29.8	COc1cc2ncnc(OCc3cc(-c4ccc(Cl)cc4Cl)no3)c2cc1OC [Compound Q-20]
7.3	COc1ccc(-c2cc(COc3ncnc4ccccc34)on2)cc1 [Compound Q-3]
16.7	Clc1ccc(-c2cc(COc3ncnc4ccccc34)on2)cc1 [Compound Q-5]
15.7	Brc1ccc(-c2cc(COc3ncnc4ccccc34)on2)cc1 [Compound Q-7]
20.4	COCCOc1cc2ncnc(OCc3cc(-c4ccc(C)cc4)no3)c2cc1OCCOC [Compound Q-30, (6,7-bis(2-methoxyethoxy))-4-((3-(4-methylphenyl)-isoxazol-5-yl)-methoxy-)-quinazoline]
18.0	c1ccc(-c2cc(COc3ncnc4ccccc34)on2)cc1 [Compound Q-1, 4-((3-phenyl-isoxazol-5-yl)-methoxy-)-quinazoline]
30.7	COc1cc2ncnc(OCc3cc(-c4ccccc4)no3)c2cc1OC [Compound Q-15, 6,7-dimethoxy-4-((3-phenyl-isoxazol-5-yl)-methoxy-)-quinazoline]
14.1	(6,7-bis(2-methoxyethoxy))-4-((3-(4-chlorophenyl)-isoxazol-5-yl))-methoxy-)-quinazoline [Compound Q-33]
47.0	COc1ccc(-c2cc(COc3ncnc4cc(OC)c(OC)cc34)on2)cc1 [Compound Q-17]
30.9	COc1cc2ncnc(OCc3cc(-c4ccc(Br)cc4)no3)c2cc1OC [Compound Q-21]
11.8	COCCOc1cc2ncnc(OCc3cc(-c4ccccc4Cl)no3)c2cc1OCCOC [Compound Q-32]
